Measurements published in BigSolDB 2.1.

CN1COCN(Cc2cnc(Cl)s2)C1=N[N+](=O)[O-]
solubility (mole fraction) (in DMF, 278.15 K): 0.059
solubility (mole fraction) (in DMF, 283.15 K): 0.0658
solubility (mole fraction) (in DMF, 288.15 K): 0.0738
solubility (mole fraction) (in DMF, 293.15 K): 0.0816
solubility (mole fraction) (in DMF, 298.15 K): 0.0892
solubility (mole fraction) (in DMF, 303.15 K): 0.0985
solubility (mole fraction) (in DMF, 308.15 K): 0.11
solubility (mole fraction) (in DMF, 313.15 K): 0.123
solubility (mole fraction) (in DMF, 318.15 K): 0.137
solubility (mole fraction) (in DMF, 323.15 K): 0.152
solubility (mole fraction) (in NMP, 278.15 K): 0.0818
solubility (mole fraction) (in NMP, 283.15 K): 0.0882
solubility (mole fraction) (in NMP, 288.15 K): 0.0952
solubility (mole fraction) (in NMP, 293.15 K): 0.102
solubility (mole fraction) (in NMP, 298.15 K): 0.111
solubility (mole fraction) (in NMP, 303.15 K): 0.119
solubility (mole fraction) (in NMP, 308.15 K): 0.128
solubility (mole fraction) (in NMP, 313.15 K): 0.138
solubility (mole fraction) (in NMP, 318.15 K): 0.149
solubility (mole fraction) (in NMP, 323.15 K): 0.161
solubility (mole fraction) (in acetone, 278.15 K): 0.00632
solubility (mole fraction) (in acetone, 283.15 K): 0.00763
solubility (mole fraction) (in acetone, 288.15 K): 0.00888
solubility (mole fraction) (in acetone, 293.15 K): 0.0101
solubility (mole fraction) (in acetone, 298.15 K): 0.0121
solubility (mole fraction) (in acetone, 303.15 K): 0.014
solubility (mole fraction) (in acetone, 308.15 K): 0.0164
solubility (mole fraction) (in acetone, 313.15 K): 0.0194
solubility (mole fraction) (in acetone, 318.15 K): 0.023
solubility (mole fraction) (in acetone, 323.15 K): 0.0268
solubility (mole fraction) (in dichloromethane, 278.15 K): 0.0126
solubility (mole fraction) (in dichloromethane, 283.15 K): 0.0152
solubility (mole fraction) (in dichloromethane, 288.15 K): 0.0174
solubility (mole fraction) (in dichloromethane, 293.15 K): 0.0197
solubility (mole fraction) (in dichloromethane, 298.15 K): 0.0222
solubility (mole fraction) (in dichloromethane, 303.15 K): 0.0249
solubility (mole fraction) (in dichloromethane, 308.15 K): 0.0277
solubility (mole fraction) (in dichloromethane, 313.15 K): 0.0306
solubility (mole fraction) (in ethyl acetate, 278.15 K): 0.00099
solubility (mole fraction) (in ethyl acetate, 283.15 K): 0.00125
solubility (mole fraction) (in ethyl acetate, 288.15 K): 0.00155
solubility (mole fraction) (in ethyl acetate, 293.15 K): 0.00183
solubility (mole fraction) (in ethyl acetate, 298.15 K): 0.0022
solubility (mole fraction) (in ethyl acetate, 303.15 K): 0.00257
solubility (mole fraction) (in ethyl acetate, 308.15 K): 0.00295
solubility (mole fraction) (in ethyl acetate, 313.15 K): 0.00339
solubility (mole fraction) (in ethyl acetate, 318.15 K): 0.00384
solubility (mole fraction) (in ethyl acetate, 323.15 K): 0.00429
solubility (mole fraction) (in methyl acetate, 278.15 K): 0.00283
solubility (mole fraction) (in methyl acetate, 283.15 K): 0.00331
solubility (mole fraction) (in methyl acetate, 288.15 K): 0.00382
solubility (mole fraction) (in methyl acetate, 293.15 K): 0.00446
solubility (mole fraction) (in methyl acetate, 298.15 K): 0.00511
solubility (mole fraction) (in methyl acetate, 303.15 K): 0.00597
solubility (mole fraction) (in methyl acetate, 308.15 K): 0.00708
solubility (mole fraction) (in methyl acetate, 313.15 K): 0.00825
solubility (mole fraction) (in methyl acetate, 318.15 K): 0.0096
solubility (mole fraction) (in methyl acetate, 323.15 K): 0.0114
